Results taken from patent US20190290474A1, “DRUG RELEASE DEVICE AND USE” (JUROX PTY LTD, priority 2016, published 2019).

Columns and labels:
[1] = Example 13: progesterone dissolution from cut devices in 250 mL acetone, HPLC/UV; assay type: physicochemical; conditions: individual device
Protocol: The combined mass of each reagent bottle and solid contents was recorded (Mi) and each bottle was then charged with 250 mL of acetone. Reagent bottles were heated to 35° C. in a temperature controlled water bath and stirred using a submersible multipoint stirrer plate.
Reagent bottles were removed from the water bath at times 2, 4.5 and 47.5 hours after the commencement of stirring. All residual water from the temperature controlled water bath was removed from the outside of the container. The total mass of the dissolution vessel, drug product and drug product solution was then recorded (Mf) and the reagent bottles were left at ambient temperature. The initial mass (of components prior to solvent addition) was subtracted from the final mass to give the solvent mass at each time point.
The temperature of each solution of device extracts was recorded at 2.5, 5 and 48 hours after stirring commenced and a 2 mL aliquot of solution was sampled immediately following the temperature reading. The aliquot of extracts were diluted in 100 mL of 50:50 acetonitrile/water and a sample of the diluted solution was filtered into HPLC vials
The mass of solvent was converted to its corresponding volume using the literature density of acetone and equation below.
A progesterone dissolution profile and final content for each implant was be obtained using a HPLC/UV method for progesterone quantification in IVD and CIDR

[2] = aqueous pH 7 buffer; cited from earlier work

CC(=O)[C@H]1CC[C@H]2[C@@H]3CCC4=CC(=O)CC[C@]4(C)[C@H]3CC[C@]12C [Progesterone]
Dissolution of progesterone, percentage of the dose concentration (1.38 g) ([1]; 2.5 Hours): 100.8% | Dissolution of progesterone, percentage of the dose concentration (1.38 g) ([1]; 5 Hours): 104.1% | Dissolution of progesterone, percentage of the dose concentration (1.38 g) ([1]; 48 Hours): 103.2% | solubility of progesterone [2]: < 100 µg/mL
